Like-named read-outs stand apart in the source and are kept apart here. Bridge positions count the residues as written; N and C are the ends. Peptide text beside a SMILES is read from it.

One assay deals with T1, Trypsin (Bos taurus, UniProt P00760).
T1 sequence (P00760 24-246): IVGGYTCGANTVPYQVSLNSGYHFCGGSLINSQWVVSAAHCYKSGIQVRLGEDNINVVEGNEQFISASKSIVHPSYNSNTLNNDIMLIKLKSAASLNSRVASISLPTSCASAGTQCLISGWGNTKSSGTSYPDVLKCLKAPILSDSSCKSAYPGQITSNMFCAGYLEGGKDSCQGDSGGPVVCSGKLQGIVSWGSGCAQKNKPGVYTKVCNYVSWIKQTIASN
Put plainly: Trypsin inhibition on Z-L-Lys-SBzl substrate.

A further assay deals with Thrombin (Homo sapiens, UniProt P00734). In words: Thrombin inhibition with Z-Gly-Pro-Arg-pNa substrate. It counts as biochemical.
For assay [1], the system named is MASP enzymes. In words: Preliminary experiments: inhibition of MASP enzymes by SGCI. It counts as biochemical.
In assay [2] the test system is MASP enzymes. In words: Preliminary experiments: binding of SGCI to MASP enzymes.
Assay [3] concerns blood coagulation (thrombin operation). In words: Thrombin time (TT) in blood plasma. Conditions: peptide 200 μM, FIG. 6.a. The protocol:
(§1) We performed blood coagulation measurements using blood plasma taken from healthy individuals. From the blood obtained through venipuncture and treated with sodium citrate (3.8% wt/vol) the plasma was isolated by centrifugation (2000 g, 15 minutes, Jouan CR412 centrifuge).
(§2) Prothrombin time (PT) testing the extrinsic pathway of blood coagulation was measured on Sysmex® CA-500 (Sysmex, Japan) automatic system using Innovin® Reagent (Dale Behring, Marburg, Germany). Activated partial thromboplastin time (APTT) testing the intrinsic pathway of blood coagulation and thrombin time (TT) directly testing thrombin operation was measured on a Coag-A-Mate® MAX (BioMerieux, France) analyser using TriniClot™ reagent (Trinity Biotech, Wichlow, Ireland) and Reanal™ reagent (Reanal Finechemical, Hungary).
(§3) To examine the effects of peptides on blood coagulation we measured dose dependency, the results are shown on the graphs in FIG. 6. […] On the ordinates time is determined in seconds, while on the abscissas the logarithm of the inhibitor concentration is shown in μM.
(§4) FIG. 6.a illustrates an experiment for measuring thrombin time, in the course of which plasma coagulation (fibrin formation) is initiated by adding thrombin to the plasma. […] The members of this protease cascade are inhibited with peptide used in increasing concentrations (abscissa), and the time needed for coagulation is measured (ordinate).

For assay [4], the system named is extrinsic pathway of blood coagulation. Put plainly: Prothrombin time (PT) in blood plasma. Conditions: peptide 200 μM, FIG. 6.b. The protocol:
as §1, §2, §3, §4

Assay [5] concerns intrinsic pathway of blood coagulation. In words: Activated partial thromboplastin time (APTT) in blood plasma. Conditions: peptide 200 μM, FIG. 6.c. The protocol: as §1, §2, §3, §4
For assay [6], the system named is lectin pathway of the complement system. In words: WIELISA complement assay, lectin pathway. It counts as biochemical. Conditions: serum, FIG. 7. The procedure: (§5) For measuring we used the so-called WIELISA kit (Euro-Diagnostica AB, COMPL300) developed for the selective measuring of the complement pathways, on the basis of the instructions for use attached to the kit. […] At the same time, the product detected during measuring is not a pathway-selective component, but the last element of the joint section of the activation pathways, the C5-9 complex.
(§6) The serum was diluted according to the prescriptions with the buffer belonging to the given complement pathway, it was incubated for 20 minutes at room temperature, the dilution sequence prepared from peptides was added to it, it was incubated for 20 minutes at room temperature, then it was pipetted into the appropriate wells of a special ELISA plate. In the following, washing, incubation and antibody addition was performed according to the instructions for use. It was incubated for 20 minutes with the substrate, and then the data was read at 450 nm in a spectrophotometer. A parallel belonged to each measuring point, 100% activity was represented by the serum without an inhibitor. The measurements were performed at the same time and on the same plate, from one single melted serum sample.

Assay [7] has as its system classical pathway of the complement system. In words: WIELISA complement assay, classical pathway. The format is biochemical. Conditions: serum, FIG. 7. The procedure: as §5, §6
In assay [8] the test system is alternative pathway of the complement system. Put plainly: WIELISA complement assay, alternative pathway. Conditions: serum, FIG. 7. The format is biochemical. The protocol: as §5, §6

Take `CC[C@H](C)[C@H](NC(=O)[C@@H]1CSSC[C@H](NC(=O)[C@H](Cc2ccc(O)cc2)NC(=O)CN)C(=O)N[C@@H](CO)C(=O)N[C@@H](CCCNC(=N)N)C(=O)N[C@@H](CO)C(=O)N[C@@H]([C@@H](C)CC)C(=O)N2CCC[C@H]2C(=O)N2CCC[C@H]2C(=O)N[C@@H](C(C)C)C(=O)N1)C(=O)N1CCC[C@H]1C(=O)N[C@@H](CC(=O)O)C(=O)O` [M2-6E-Y7I] (H-GYCSRSIPPVCIPD-OH; disulfide 3-11; N-terminus and C-terminus assumed): the Ki on Trypsin turned out to be 160 nM.

In turn, `CC[C@H](C)[C@@H]1NC(=O)[C@@H]2CCCN2C(=O)[C@@H]2CCCN2C(=O)[C@H]([C@@H](C)CC)NC(=O)[C@H](CO)NC(=O)[C@H](CCCCN)NC(=O)[C@H]([C@@H](C)O)NC(=O)[C@@H](NC(=O)[C@H](CCCNC(=N)N)NC(=O)CN)CSSC[C@@H](C(=O)N[C@@H](Cc2ccccc2)C(=O)N2CCC[C@H]2C(=O)N[C@@H](CC(=O)O)C(=O)O)NC1=O` [wild-type SFTI, reference compound] had a Ki on Thrombin of 140000 nM.

At Trypsin, `CC[C@H](C)[C@H](NC(=O)[C@@H]1CSSC[C@H](NC(=O)[C@H](CCSC)NC(=O)CN)C(=O)N[C@@H](CO)C(=O)N[C@@H](CCCNC(=N)N)C(=O)N[C@@H](CO)C(=O)N[C@@H](Cc2ccc(O)cc2)C(=O)N2CCC[C@H]2C(=O)N2CCC[C@H]2C(=O)N[C@@H](C(C)C)C(=O)N1)C(=O)N1CCC[C@H]1C(=O)N[C@@H](CC(=O)O)C(=O)O` [M2-6E-Y2M] (H-GMCSRSYPPVCIPD-OH; disulfide 3-11; N-terminus and C-terminus assumed) gave a Ki of 4000 nM.

As for `CC[C@H](C)[C@@H]1NC(=O)[C@@H]2CCCN2C(=O)[C@@H]2CCCN2C(=O)[C@H](CC(C)C)NC(=O)[C@H](CO)NC(=O)[C@H](CCCNC(=N)N)NC(=O)[C@H](CO)NC(=O)[C@@H](NC(=O)[C@@H](NC(=O)CN)C(C)C)CSSC[C@@H](C(=O)N[C@@H](Cc2c[nH]c3ccccc23)C(=O)N2CCC[C@H]2C(=O)N[C@@H](CC(=O)O)C(=O)O)NC1=O` [M1-3E-Y12W] (H-GVCSRSLPPICWPD-OH; disulfide 3-11; N-terminus and C-terminus assumed), at Trypsin, the affinity, expressed as Ki, was 170 nM.

In the case of “SGCI: Schistocerca Gregaria Chymotrypsin Inhibitor, chymotrypsin inhibitor molecule fused to the SFTI library for monovalent phage display (EVTCEPGTTFKDKCNTCRCGSDGKSAACTLKACPQ)”, the “inhibition of MASP enzymes” value in the assay on MASP enzymes [1] was “does not inhibit MASP enzymes”. The “binding to MASP enzymes” value with MASP enzymes [2] is on record as “does not even bind to these enzymes”.

`CC[C@H](C)[C@H](NC(=O)[C@@H]1CSSC[C@H](NC(=O)[C@H](Cc2c[nH]c3ccccc23)NC(=O)CN)C(=O)N[C@@H](CO)C(=O)N[C@@H](CCCNC(=N)N)C(=O)N[C@@H](CO)C(=O)N[C@@H](Cc2ccc(O)cc2)C(=O)N2CCC[C@H]2C(=O)N2CCC[C@H]2C(=O)N[C@@H](C(C)C)C(=O)N1)C(=O)N1CCC[C@H]1C(=O)N[C@@H](CC(=O)O)C(=O)O` [M2-6E-Y2W] (H-GWCSRSYPPVCIPD-OH; disulfide 3-11; N-terminus and C-terminus assumed) had a Ki on Trypsin of 1700 nM.

On Trypsin, `CC[C@H](C)[C@@H]1NC(=O)CNC(=O)[C@H](CC(=O)O)NC(=O)[C@@H]2CCCN2C(=O)[C@H]([C@@H](C)CC)NC(=O)[C@@H]2CSSC[C@H](NC1=O)C(=O)N[C@@H](CO)C(=O)N[C@@H](CCCNC(=N)N)C(=O)N[C@@H](CO)C(=O)N[C@@H](CC(C)C)C(=O)N1CCC[C@H]1C(=O)N1CCC[C@H]1C(=O)N[C@@H]([C@@H](C)CC)C(=O)N2` [M2-4G cyclic] (cyclo(CIPDGICSRSLPPI); disulfide 1-7) had a Ki of 350 nM.

Turning to `CC[C@H](C)[C@H](NC(=O)CN)C(=O)N[C@H]1CSSC[C@@H](C(=O)N[C@H](C(=O)N2CCC[C@H]2C(=O)N[C@@H](CC(=O)O)C(=O)O)[C@@H](C)CC)NC(=O)[C@H]([C@@H](C)CC)NC(=O)[C@@H]2CCCN2C(=O)[C@@H]2CCCN2C(=O)[C@H](CC(C)C)NC(=O)[C@H](CO)NC(=O)[C@H](CCCNC(=N)N)NC(=O)[C@H](CO)NC1=O` [M2-4G] (H-GICSRSLPPICIPD-OH; disulfide 3-11; N-terminus and C-terminus assumed), the “thrombin inhibition” value at Thrombin is “poor thrombin inhibitor”. Besides, at Thrombin (read-out: Ki value on thrombin), the Ki is 10000 nM. Besides, the “thrombin time, effect on coagulation” value in assay [3] is “reached the extreme measuring value”. Moreover, in [4], the “prothrombin time, effect on coagulation” value was “reached the extreme measuring value”. The “activated thromboplastin time, effect on coagulation” value in assay [5] is listed as “reached the extreme measuring value”. Besides, the “inhibition of the lectin pathway (C5-9 complex)” value in [6] was “efficient and specific inhibitors of the lectin pathway”. For the same compound, the “inhibition of the classical pathway (C5-9 complex)” value in [7] is “neither “S” peptide nor the “NS” peptide inhibited”. Also, the “inhibition of the alternative pathway (C5-9 complex)” value in [8] is “neither “S” peptide nor the “NS” peptide inhibited”. Also, on Trypsin, the Ki came to 260 nM and the “trypsin inhibition compared to wild-type SFTI-1” value is given as “much weaker on trypsin than wild-type SFTI-1”.

The term Ki denotes a dissociation constant, usually derived from enzyme kinetics or from competition with a known ligand.

The values above are taken from US20120214748A1, “NOVEL PEPTIDES, PROCESS FOR PREPARATION THEREOF, AND USE THEREOF” (priority 2009, published 2012).
